Results: the supplement of paper PMC10307832

What was measured:
Assay in all cases: relative viability (nuclei count vs DMSO), 5 days (fraction); higher = more cells survive
[1] = compound: CC1=CC(=NN1)NC2=CC(=NC(=N2)/C=C/C3=CC=CC=C3)N4CCN(CC4)C + C[C@]1(O)C[C@@H](c2nc(-c3ccc4ccc(-c5ccccc5)nc4c3)c3c(N)nccn32)C1 [Linsitinib] (partner 1 µM)
Summary of the method: (§1)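 Values are medians from duplicate plates. Each reflects relative viability, defined as the nuclei count of treated wells over that of vehicle wells. Lung cancer cell lines in 1536-well plates were pin-tool dosed one day after seeding with one drug alone or with a fixed anchor-drug dose plus five library-drug doses (not always all listed) in √10 steps, then fixed, stained and imaged at 4× after 5 days.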

[2] = compound: CC1=CC(=NN1)NC2=CC(=NC(=N2)/C=C/C3=CC=CC=C3)N4CCN(CC4)C + CC(C)C[C@H](NC(=O)[C@H](Cc1ccccc1)NC(=O)c1cnccn1)B(O)O [Bortezomib] (partner 0.002 µM)
Summary of the method: as §1

Obatoclax + OSI-027 = compound: COC1=CC(c2cc3ccccc3[nH]2)=N/C1=C\c1[nH]c(C)cc1C [Obatoclax] + COc1cccc2cc(-c3nc([C@H]4CC[C@H](C(=O)O)CC4)n4ncnc(N)c34)[nH]c12 [OSI-027] (partner 0.5 µM)
Summary of the method: as §1

Bortezomib + AZD7762 = compound: CC(C)C[C@H](NC(=O)[C@H](Cc1ccccc1)NC(=O)c1cnccn1)B(O)O [Bortezomib] + NC(=O)Nc1cc(-c2cccc(F)c2)sc1C(=O)N[C@H]1CCCNC1 [AZD7762] (partner 0.2 µM)
Summary of the method: as §1

Cell Line	relative viability ([1]; first compound 0.08 µM)	relative viability ([1]; first compound 0.253 µM)	relative viability ([1]; first compound 0.8 µM)	relative viability ([1]; first compound 2.53 µM)	relative viability ([1]; first compound 8 µM)	relative viability ([2]; first compound 0.08 µM)	relative viability ([2]; first compound 0.253 µM)	relative viability ([2]; first compound 0.8 µM)	relative viability ([2]; first compound 2.53 µM)	relative viability ([2]; first compound 8 µM)	relative viability (Obatoclax + OSI-027; first compound 0.01 µM)	relative viability (Obatoclax + OSI-027; first compound 0.03162 µM)	relative viability (Obatoclax + OSI-027; first compound 0.1 µM)	relative viability (Obatoclax + OSI-027; first compound 0.3162 µM)	relative viability (Obatoclax + OSI-027; first compound 1 µM)	relative viability (Bortezomib + AZD7762; first compound 0.0002 µM)	relative viability (Bortezomib + AZD7762; first compound 0.000632 µM)	relative viability (Bortezomib + AZD7762; first compound 0.002 µM)	relative viability (Bortezomib + AZD7762; first compound 0.006325 µM)	relative viability (Bortezomib + AZD7762; first compound 0.02 µM)
A549	0.538	0.689	0.481	0.275	0.0279															
COR-L23	0.868	0.809	0.839	0.173	0.0756	0.972	1.29	1	0.196	0.0895	0.715	0.853	0.786	0.405	0.177					
COR-L 105	0.815	1.08	1.01	0.331	0.192	0.744	0.988	0.76	0.263	0.231	0.741	0.906	0.803	0.518	0.301					
Calu-6	0.98	0.997	0.883	0.441	0.158	0.912	0.947	0.764	0.174	0.13										
EBC-1	0.852	0.874	0.923	0.71	0.317	0.523	0.557	0.427	0.264	0.158										
IA-LM	0.561	0.61	0.878	0.752	0.729	0.74	0.897	1.14	0.463	0.121										
NCI-H520	1.01	0.995	0.664	0.233	0.122	0.487	0.599	0.395	0.154	0.11	0.256	0.284	0.406	0.251	0.243					
NCI-H522											0.7	0.718	0.71	0.734	0.775	0.794	0.719	0.715	0.384	0.356
NCI-H661	0.618	0.579	0.663	0.44	0.182	0.741	0.906	0.839	0.669	0.203	0.689	0.704	0.709	0.649	0.407					
NCI-H1299	0.986	0.967	1.03	0.754	0.295	1	1.05	1	0.854	0.211										
NCI-H1563	1.23	1.34	1.18	0.718	0.514	0.943	0.874	0.863	0.714	0.428	0.741	0.797	0.87	0.705	0.619					
NCI-H1623											0.429	0.434	0.47	0.389	0.471					
NCI-H1648											0.253	0.226	0.413	0.269	0.232	0.549	0.634	0.771	0.518	0.269
NCI-H1650						0.209	0.191	0.182	0.183	0.19	0.677	0.552	0.644	0.386	0.225					
NCI-H2009	1.08	1.16	1.21	1.05	0.155	1.04	0.54	1.11	0.423	0.15	0.582	0.608	0.535	0.229	0.247					
NCI-H2023	0.63	0.725	0.581	0.382	0.0796	1.01	1.12	0.91	0.0954	0.0652	0.42	0.381	0.488	0.226	0.102					
NCI-H2170											0.684	0.73	0.647	0.769	0.754	0.804	0.685	0.943	0.54	0.113
NCI-H2228	0.776	0.709	0.506	0.154	0.0965	0.96	0.917	0.74	0.0986	0.0661	0.653	0.507	0.524	0.318	0.152					
NCI-H2342											0.654	0.615	0.728	0.507	0.618	0.64	0.486	0.478	0.582	0.433
SK-LU-1	0.93	1.18	0.84	0.238	0.142	1.1	1.28	1.01	0.429	0.195	0.366	0.315	0.273	0.205	0.166					
SK-MES-1	1.06	1.04	0.939	0.796	0.146						0.607	0.611	0.529	0.456	0.179					
SW 900											0.54	0.512	0.709	0.383	0.258	0.572	0.627	0.188	0.178	0.158
SW 1573	0.737	0.78	0.607	0.502	0.124	1.13	1.02	1.02	0.348	0.1	0.612	0.559	0.662	0.219	0.115					
UMC-11	0.937	1.03	0.934	0.508	0.133	0.718	0.726	0.636	0.12	0.08	0.465	0.504	0.48	0.379	0.285					
